Test results: patent US20230127046A1, “G9a INHIBITOR” (RIKEN, priority 2019, published 2023)
Like-named read-outs stand apart in the source and are kept apart here.

Molecular target: T1, recombinant human G9a protein (Homo sapiens, UniProt Q96KQ7)
T1 construct: purchased BPS Bioscience Inc. #51001
T1 sequence (Q96KQ7 785-1210 limits assumed): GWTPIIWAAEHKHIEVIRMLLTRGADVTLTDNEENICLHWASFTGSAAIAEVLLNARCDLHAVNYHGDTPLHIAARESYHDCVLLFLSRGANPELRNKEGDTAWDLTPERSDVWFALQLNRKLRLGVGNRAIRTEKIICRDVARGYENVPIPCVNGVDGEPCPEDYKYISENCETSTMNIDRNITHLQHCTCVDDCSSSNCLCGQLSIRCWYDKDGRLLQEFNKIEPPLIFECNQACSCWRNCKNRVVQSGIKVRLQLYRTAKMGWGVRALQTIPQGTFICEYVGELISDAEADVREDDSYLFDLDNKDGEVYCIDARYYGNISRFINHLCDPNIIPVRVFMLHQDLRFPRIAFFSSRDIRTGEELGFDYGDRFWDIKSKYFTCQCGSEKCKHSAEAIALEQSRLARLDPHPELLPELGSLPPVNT
Test: G9a inhibitory activity test (ALPHA)
Assay type: biochemical
Description: The G9a inhibitory activity of each compound was evaluated by measuring the enzymatic activity of G9a by amplified luminescence proximity homogeneous assay (ALPHA). First, 7.5 μL of a dilution of recombinant human G9a protein (BPS Bioscience Inc., #51001) diluted to 0.05 to 0.1 nM with a Tris buffer solution (50 mM Tris-HCl [pH 9.0], 50 mM NaCl, 0.01% Tween-20, 1 mM DTT), and 0.5 μL of the test compound were added to each well of a 384-well microplate (AlphaPlate-384 Shallow Well, PerkinElmer, Inc., #6008359), mixed by vortex, and incubated at room temperature for 10 minutes. 500 nM biotinylated histone H3 peptide (1-21) (AnaSpec Inc., #61702) and 150 μM SAM (Sigma-Aldrich Co. LLC, #A7007) were mixed at 1:1 in advance, and 2 μL of the mixture was added to each well, mixed by vortex, and then incubated at room temperature for 1 hour. AlphaLISA anti-H3K9me2 acceptor beads (PerkinElmer, Inc., #AL117C) and AlphaScreen streptavidin donor beads (PerkinElmer, Inc., #6760002B) were each diluted with an epigenetic buffer (PerkinElmer, Inc., AlphaLISA Epigenetics Buffer Kit #AL008C) to a final concentration of […] after addition. These dilutions were added to the reaction solution in the dark and incubated at room temperature for 1 hour in the dark. Then, measurement was performed using the EnSpire Alpha plate reader (PerkinElmer, Inc., Waltham, Mass., USA). The G9a inhibitory activity of the test compound was calculated as a compound concentration necessary for suppressing G9a enzymatic activity by 50% (IC50 value), by determining the percent inhibition of the compound when the value of a control without the addition of the compound was defined as 0% and the value of a control without the addition of the enzyme was defined as 100%.

[1] = read-out: Inhibitory activity (G9a IC50)
[2] = biotinylated histone H3 peptide (1-21), SAM, read-out: Inhibitory activity (G9a IC50 value)

Row | Compound | IC50 [1] | IC50 [2]
1 | CCCCC(NC(=O)c1[nH]c2c(c1C)C(=O)CC(C)(C)C2)C(=O)NCc1ccc(OCCN(C)C)cc1 (stereo not drawn) [Example 1-18] |  | 50 to 200 nM
2 | Cc1c(C(=O)NC(CCC2CC2)C(=O)N2CCc3ccc(O)cc32)[nH]c2c1C(=O)CC(C)(C)C2 (stereo not drawn) [Example 1-136] | ≥ 200 nM | 
3 | Cc1c(C(=O)NC(CCC2CC2)C(=O)Nc2cccc(C#N)c2)[nH]c2c1C(=O)CC(C)(C)C2 (stereo not drawn) [Example 1-62] |  | 50 to 200 nM
4 | Cc1c(C(=O)NC(CCC2CC2)C(=O)Nc2ccc(N(C)C)nc2)[nH]c2c1C(=O)CC(C)(C)C2 (stereo not drawn) [Example 1-74] |  | 50 to 200 nM
5 | CCCCC(NC(=O)c1[nH]c2c(c1C)C(=O)CC(C)(C)C2)C(=O)Nc1cccc2[nH]ccc12 (stereo not drawn) [Example 1-90] |  | ≥ 200 nM
6 | CCCCC(NC(=O)c1[nH]c2c(c1C)C(=O)CC(C)(C)C2)C(=O)NCc1cccc(CN(C)C)n1 (stereo not drawn) [Example 4, N-[1-[[6-[(dimethylamino)methyl]pyridine-2yl]methylamino]-1-oxohexan-2-yl]-3,6,6-trimethyl-4-oxo-5,7-dihydro-1H-indole-2-carboxamide] | ≥ 200 nM | 
7 | CCCCC(NC(=O)c1[nH]c2c(c1C)C(=O)CC(C)(C)C2)C(=O)Nc1cccc(CN2CCCC2)c1 (stereo not drawn) [Example 1-113] | < 50 nM | 
8 | CCCCC(NC(=O)c1[nH]c2c(c1C)C(=O)CC(C)(C)C2)C(=O)Nc1ccc(OC2CCN(C)CC2)cc1OC (stereo not drawn) [Example 1-8] |  | < 50 nM
9 | Cc1c(C(=O)NC(CCC2CC2)C(=O)NCc2ccc(CN(C)C)cc2)[nH]c2c1C(=O)CC(C)(C)C2 (stereo not drawn) [Example 1-67] |  | < 50 nM
10 | CCCCC(NC(=O)c1[nH]c2c(c1C)C(=O)CC(C)(C)C2)C(=O)Nc1ccccc1C(F)(F)F (stereo not drawn) [Example 1-27] |  | ≥ 200 nM
11 | Cc1c(C(=O)NC(CCC2CC2)C(=O)N2CCc3cc(OCCO)ccc32)[nH]c2c1C(=O)CC(C)(C)C2 (stereo not drawn) [Example 1-133] | ≥ 200 nM | 
12 | Cc1c(C(=O)NC(CCC2CC2)C(=O)N2CCc3c(OC4CCN(C)CC4)cccc32)[nH]c2c1C(=O)CC(C)(C)C2 (stereo not drawn) [Example 1-124] | 50 to 200 nM | 
13 | CCCCC(NC(=O)Cc1ccccc1N)C(=O)Nc1ccc(OC2CCN(C)CC2)nc1 (stereo not drawn) [Example 29] | ≥ 200 nM | 
14 | CCCCC(NC(=O)c1[nH]c2c(c1C)C(=O)CC(C)(C)C2)C(=O)Nc1ccc2[nH]ncc2c1 (stereo not drawn) [Example 1-91] |  | ≥ 200 nM

Further lines, results first:

Row | IC50 [1] | IC50 [2] | Compound
15 | ≥ 200 nM |  | CCCCC(NC(=O)c1[nH]c(C)c(C(=O)OCC)c1C)C(=O)Nc1ccc(OC2CCN(C)CC2)nc1 (stereo not drawn) [Example 6-91]
16 | ≥ 200 nM |  | Cc1c(C(=O)NC(CCC2CC2)C(=O)Nc2ccc(Cl)nc2)[nH]c2c1C(=O)CC(C)(C)C2 (stereo not drawn) [Example 6-7]
17 | 50 to 200 nM |  | CCCC[C@@H](NC(=O)c1[nH]c2c(c1C)C(=O)CC(C)(C)C2)C(=O)Nc1ccc(OC2CNC2)nc1 [Example 26-3]
18 | < 50 nM |  | COc1ccc(NC(=O)C(CCC2CC2)NC(=O)c2ccc(Nc3ccncc3C)cc2)cn1 (stereo not drawn) [Example 6-65]
19 | < 50 nM |  | CCCCC(NC(=O)c1[nH]c2c(c1C)C(=O)CC(C)(C)C2)C(=O)Nc1cccc(CN(C)C)c1 (stereo not drawn) [Example 18-1, N-[1-[3-[(dimethylamino)methyl]anilino]-1-oxohexan-2-yl]-3,6,6-trimethyl-4-oxo-5,7-dihydro-1H-indole-2-carboxamide]
20 | ≥ 200 nM |  | COc1ccc(NC(=O)C(CCC2CC2)NC(=O)c2ccc(OCCCN(C)C)cc2)cn1 (stereo not drawn) [Example 6-72]
21 | ≥ 200 nM |  | CCCCC(NC(=O)c1[nH]c2c(c1C)C(=O)CC(C)(C)C2)C(=O)N[C@H](CO)c1ccccc1 (stereo partly drawn) [Example 3-2]
22 | ≥ 200 nM |  | CCCC[C@H](NC(=O)c1[nH]c2c(c1C)C(=O)CC(C)(C)C2)c1nc2ccc(OCCCN(C)C)cc2[nH]1 [Example 34-1, (S)-N-(1-(6-(3-(dimethylamino)propyloxy)-1H-benzo[d]imidazol-2-yl)pentyl)-3,6,6-trimethyl-4-oxo-4,5,6,7-tetrahydro-1H-indole-2-carboxamide]
23 | ≥ 200 nM |  | CCCCC(NC(=O)Cc1ccc(Cl)cc1)C(=O)Nc1ccc(OC2CCN(C)CC2)nc1 (stereo not drawn) [Example 11-9]
24 | ≥ 200 nM |  | CCCC[C@@H](CNc1ccccc1)NC(=O)c1[nH]c2c(c1C)C(=O)CC(C)(C)C2 [Example 17-1, (S)-3,6,6-trimethyl-4-oxo-N-(1-(phenylamino)hexan-2-yl)-4,5,6,7-tetrahydro-1H-indole-2-carboxamide]
